Test [1] has as its target human recombinant EP4 receptor (Homo sapiens, UniProt P35408). Put plainly: [3H]-PGE2 specific binding on human recombinant EP4 receptor (HEK293 membranes). The protocol:
Cell membranes were prepared from HEK293 cell line (Human Embryonic Kidney 293) stably overexpressing human recombinant EP4 receptor. Cells grow adherent in DMEM with Glutamax | containing 10% FBS at 37° C. with 5% CO2. For membranes preparation, culture medium was aspirated from 150 cm^2 flasks in which cells were seeded. Cell monolayers were washed with 10 ml of hypotonic lysis buffer (TRIS 5 mM+EDTA 5 mM-pH 7.4), then cells were detached and lysed with the same buffer and by mechanical scraping. Lysates were centrifuged at 40000×g at 4° C. for 22 min. Pellets were stored at −80° C. until the use.
[3H]-Prostaglandin E2 ([3H]-PGE2) binding assays were performed in 10 mM MES-KOH buffer pH6, containing 10 mM MgCl2 and 1 mM CaCl2. Ten microgram of protein from membrane fractions are incubated in a total volume of 0.1 ml with 1 nM [3H]-PGE2. In order to determine the total binding or the non specific binding, 1% DMSO or 1 μM PGE2 were added to reaction mixtures, respectively. The specific binding represented >85% of total binding. In competition curves, the diluent was substituted by the test compounds (8 concentration spanning at least 2 order of magnitude; points in duplicates). In an independent series of experiments, competition curves of the same compounds were performed in the presence of Bovine Serum Albumin 0.5%. Incubation was carried out in a 96 multiwell plate for 90 min at room temperature, prior to separation of the bound and free radioligand by rapid filtration on glass fiber filters (Unifilter GFB96, PerkinElmer Inc) pre-soaked in 0.3% polyethyleneimine. Filters were washed with ice cold buffer pH 7.4 (50 mM HEPES, NaCl 500 mM, BSA 0.1%), dried for 30 minutes at 30° C. and then 0.1 ml of MICROSCINT-20 (PerkinElmer Inc) were added. The residual [3H]-PGE2 binding was determined by solid scintillation counter (TopCount, PerkinElmer Inc), after at least 1 hour of stabilization. Results of the competition curves were expressed as IC50 and the corresponding Ki were calculated according to the Chang-Prousoff equation. Finally the Ki value was transformed in pKi (the negative log of Ki).

The next test concerns CT26 cancer cell tumours. The test is described as follows: CT26 syngeneic model of mouse colorectal cancer in Balb/c mice. The format is in vivo. Conditions: compounds 30 mg/kg oral daily day 7-23; anti PD-1 i.p. 20 mg/kg day 8, 10 mg/kg days 13, 19, 22. The protocol: Male Balb/c mice 4-6 weeks old were housed five per cage in a temperature and humidity controlled room with a 12h/12h light/dark cycle. Throughout the experiment the animals had free access to food and water. The Balb/c mice were randomly divided into 6 groups (n=15 in each group): vehicle, Compound 1, Compound 2, anti PD-1, Compound 1+anti PD-1, Compound 2+anti PD-1 group.
CT26 cells were purchased from ATCC and cultured in Dulbecco's Modified Eagle's Medium (DMEM; ThermoFisher Scientific) supplemented with 10% fetal bovine serum (FBS; Sigma Aldrich) at 37° C. in an incubator with 5% CO2. Cells were sub-cultured twice a week until the number of cells needed for inoculation was obtained.
On the day of transplantation (day 0) logarithmic growing phase cells were harvested, diluted in PBS and 10^6 cells in 0.2 ml of PBS were subcutaneously inoculated into the lateral abdominal region of each mouse using a 26G syringe.
On day 7 after inoculation the mice were randomized into the 6 treatment groups each of 15 animals receiving respectively vehicle, Compound 1, Compound 2, anti PD-1 and the combination therapies. […]
Tumour sizes (mm^3) were evaluated twice a week by using a digital caliper. The tumour volumes were calculated measuring the tumour lengths along the major and minor axis and using the formula: Volume=[[…]]/2.

Structures are written as SMILES.

Chain of human recombinant EP4 receptor (P35408 whole entry): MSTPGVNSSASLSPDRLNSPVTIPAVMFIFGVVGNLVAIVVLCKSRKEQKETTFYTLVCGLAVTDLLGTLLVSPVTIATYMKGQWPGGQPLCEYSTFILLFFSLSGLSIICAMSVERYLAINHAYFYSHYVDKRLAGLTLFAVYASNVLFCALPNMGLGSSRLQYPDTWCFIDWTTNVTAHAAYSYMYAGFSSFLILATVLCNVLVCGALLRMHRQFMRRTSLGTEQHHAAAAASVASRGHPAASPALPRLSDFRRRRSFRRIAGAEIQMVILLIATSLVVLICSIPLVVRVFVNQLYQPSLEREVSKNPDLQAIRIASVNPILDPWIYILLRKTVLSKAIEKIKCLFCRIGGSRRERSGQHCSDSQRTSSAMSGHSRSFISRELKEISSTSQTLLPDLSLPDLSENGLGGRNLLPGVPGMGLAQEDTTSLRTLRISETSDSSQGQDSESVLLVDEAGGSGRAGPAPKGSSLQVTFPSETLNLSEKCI

For `O=C([O-])c1ccc(C2(NC(=O)[C@H]3CCCCN3Cc3ccc(C(F)(F)F)cc3)CC2)cc1.[Na+]` [Compound 2, (R)-4-(1-(1-(4-(trifluoromethyl)benzyl)piperidine-2-carboxamido)cyclopropyl)benzoic acid, Sodium salt], the Ki in test [1] (BSA 0.5%) is 200 nM; in test [1] (None (absence of BSA)), 31.6 nM. In test [1] (BSA 0.5% vs none), the “lower affinity in the presence of proteins (BSA)” value was 6 fold. Besides, the “effect on tumour growth (tumour volume)” value in the test with CT26 cancer cell tumours was “only showed a slight impairment of tumour growth”.

Source of the values: patent US12544365B2, “Pharmaceutical combination of an EP4 antagonist and immune checkpoint inhibitors for the treatment of tumours” (ROTTAPHARM BIOTECH S.R.L., priority 2019, dated 2026).
